How the values were obtained:
[1] = system: H1/NCa HA (A/New Caledonia/20/1999 (H1N1)); assay type: binding, influenza A virus
[2] = system: P-gp (MDR1); test: In vitro cell permeability / P-gp substrate assay; settings: pig; for Papp A→B at 120 min, 5 µM / Papp A→B at 120 min, 30 nM: LLC-MDR1, apical to basolateral; for Papp B→A at 120 min, 5 µM / Papp B→A at 120 min, 30 nM: LLC-MDR1, basolateral to apical
[3] = system: H1/Cal HA (A/California/07/2009 (H1N1)); assay type: binding, influenza A virus
[4] = system: H5/Viet HA (A/Vietnam/1203/2004 (H5N1)); assay type: binding, influenza A virus
[5] = system: H1N1 A/Brisbane/59/2007 (H1/Bri) HA; assay type: biochemical, influenza A virus; settings: pH 5.25
[6] = In vitro cell permeability assay; settings: for Papp B→A at 120 min, 5 µM / efflux ratio at 120 min, 30 nM / Papp B→A at 120 min, 30 nM: LLC-Parent; for Papp B→A at 120 min, 5 µM / Papp B→A at 120 min, 30 nM: basolateral to apical
[7] = LLC-PK1, pH 7.4, Papp AB, no inhibitor
[8] = LLC-PK1, pH 7.4, Papp BA, no inhibitor
[9] = pig, LLC-PK1, pH 7.4, Papp BA, no inhibitor

SMILES | IC50 [1] [µM] | IC50 [3] [µM] | IC50 [4] [µM] | IC50 [5] [µM] | further results
CSCC[C@@H]1NC(=O)CNC(=O)CNC(=O)[C@H](C)NC(=O)[C@H](C(C)C)NC(=O)CNC(=O)[C@H](CC(C)C)NC(=O)[C@@H]2CCCN2C(=O)[C@H](CC(=O)O)NC(=O)[C@H](CCC(=O)O)NC(=O)[C@H](Cc2ccc(O)cc2)NC(=O)[C@H](CC(C)C)NC(=O)CNC1=O [CP14] | 1.24 ± 0.15 | 1.72 ± 0.24 | 10 ± 0.91 | 1.24 ± 0.03 | Papp A→B at 120 min, 5 µM [2, 7]: 0.26 ± 0.04 ×10⁻⁶ cm/s; Papp B→A at 120 min, 5 µM [2, 8]: 0.32 ± 0.05 ×10⁻⁶ cm/s; Papp A→B at 120 min, 5 µM ([2]; LLC-PK1, pH 7.4, with 5 µM GF120918 (elacridar), Papp AB, + 5 µM GF120918): 0.25 ± 0.01 ×10⁻⁶ cm/s; Papp B→A at 120 min, 5 µM ([2]; LLC-PK1, pH 7.4, with 5 µM GF120918 (elacridar), Papp BA, + 5 µM GF120918): 0.33 ± 0.05 ×10⁻⁶ cm/s; recovery ([6]; LLC-PK1): 96.5%; Papp A→B at 120 min, 5 µM ([6]; pig, LLC-PK1, pH 7.4): 0.11 ×10⁻⁶ cm/s; Papp B→A at 120 min, 5 µM [6, 9]: 0.12 ± 0.01 ×10⁻⁶ cm/s; Papp B→A at 120 min, 5 µM ([6]; pig, LLC-PK1, pH 7.4, with 5 µM GF120918 (elacridar), Papp BA, + 5 µM GF120918): 0.11 ± 0.01 ×10⁻⁶ cm/s
CSCC[C@@H]1NC(=O)CNC(=O)CNC(=O)[C@H](C)NC(=O)[C@H](C(C)C)NC(=O)CNC(=O)[C@H](CC(C)C)NC(=O)[C@@H]2CCCN2C(=O)[C@H](CC(=O)O)NC(=O)[C@H](CCC(=O)O)NC(=O)[C@H](Cc2ccc(O)cc2)NC(=O)[C@@H](NC(=O)CCC(=O)O)CSSC[C@@H](C(N)=O)NC1=O [CP12] | 4.95 ± 0.38 | 6.38 ± 0.17 | 28.8 ± 10.2 |  | 
CSCC[C@@H]1NC(=O)CNC(=O)CNC(=O)[C@H](C)NC(=O)[C@H](C(C)C)NC(=O)CNC(=O)[C@H](CC(C)C)NC(=O)[C@@H]2CCCN2C(=O)[C@H](CC(=O)O)NC(=O)[C@H](CCC(=O)O)NC(=O)[C@H](Cc2ccc(O)cc2)NC(=O)[C@H](CC(C)C)NC(=O)[C@H]2CCCN2C(=O)[C@@H]2CCCN2C(=O)CNC1=O [CP3] | 2.01 ± 0.54 | 1.71 ± 0.19 | 27.1 ± 2.79 | 2.78 ± 0.26 | 
CSCC[C@@H]1NC(=O)[C@H](CCC(=O)O)NC(=O)CNC(=O)[C@H](C)NC(=O)[C@H](C(C)C)NC(=O)CNC(=O)[C@H](CC(C)C)NC(=O)[C@@H]2CCCN2C(=O)[C@H](CC(=O)O)NC(=O)[C@H](CCCNC(=N)N)NC(=O)[C@H](Cc2ccc(O)cc2)NC(=O)[C@@H](NC(=O)CCC(=O)O)CSSC[C@@H](C(N)=O)NC1=O [CP13] | 12.79 ± 0.09 | 11.8 ± 2.61 | 39.8 ± 12.2 | 39.4 ± 8.32 | 
CSCC[C@@H]1NC(=O)CNC(=O)CNC(=O)[C@H](C)NC(=O)[C@H](C(C)C)NC(=O)CNC(=O)[C@H](CC(C)C)NC(=O)[C@@H]2CCCN2C(=O)[C@H](CC(=O)O)NC(=O)[C@H](CCC(=O)O)NC(=O)[C@H](Cc2ccc(O)cc2)NC(=O)[C@H](CC(C)C)NC(=O)[C@H]2CCCN2C(=O)CNC(=O)CNC1=O [CP6] | 1.47 ± 0.32 | 1.09 ± 0.2 | 13.5 ± 2.17 | 2.74 ± 0.9 | 
CSCC[C@@H]1NC(=O)CNC(=O)CNC(=O)[C@H](C)NC(=O)[C@H](C(C)C)NC(=O)CNC(=O)[C@H](CC(C)C)NC(=O)[C@@H]2CCCN2C(=O)[C@H](CC(=O)O)NC(=O)[C@H](CCC(=O)O)NC(=O)[C@H](Cc2ccc(O)cc2)NC(=O)[C@H](CC(C)C)NC(=O)[C@H](CO)NC(=O)CNC(=O)[C@H]2CCCN2C(=O)[C@H](C(C)C)NC(=O)CNC1=O [CP5] |  | 4.63 |  | 17 ± 4.58 | 
C[C@H]1O[C@@H](O[C@H]2[C@@H](O)C[C@H](O[C@H]3[C@@H](O)C[C@H](O[C@H]4CC[C@@]5(C)[C@H](CC[C@@H]6[C@@H]5C[C@@H](O)[C@]5(C)[C@@H](C7=CC(=O)OC7)CC[C@]65O)C4)O[C@@H]3C)O[C@@H]2C)C[C@H](O)[C@@H]1O [3H-Digoxin, Digoxin, reference compound] |  |  |  |  | efflux ratio at 120 min, 30 nM ([2]; LLC-PK1, pH 7.4, Efflux ratio BA/AB, LLC-MDR1, no inhibitor): 22.6; Papp A→B at 120 min, 30 nM [2, 7]: 0.45 ± 0.08 ×10⁻⁶ cm/s; Papp B→A at 120 min, 30 nM [2, 8]: 10.3 ± 0.2 ×10⁻⁶ cm/s; efflux ratio at 120 min, 30 nM ([2]; LLC-PK1, pH 7.4, with elacridar (GF120918) 5 µM, Efflux ratio BA/AB, LLC-MDR1, + 5 µM GF120918): 0.91; Papp A→B at 120 min, 30 nM ([2]; LLC-PK1, pH 7.4, with elacridar (GF120918) 5 µM, Papp AB, + 5 µM GF120918): 2.98 ± 0.15 ×10⁻⁶ cm/s; Papp B→A at 120 min, 30 nM ([2]; LLC-PK1, pH 7.4, with elacridar (GF120918) 5 µM, Papp BA, + 5 µM GF120918): 2.72 ± 0.05 ×10⁻⁶ cm/s; Papp A→B at 120 min, 30 nM ([6]; pig, LLC-PK1, pH 7.4): 2.45 ± 0.1 ×10⁻⁶ cm/s; efflux ratio at 120 min, 30 nM ([6]; pig, LLC-PK1, pH 7.4, Efflux ratio BA/AB, no inhibitor): 0.94; Papp B→A at 120 min, 30 nM [6, 9]: 2.31 ± 0.15 ×10⁻⁶ cm/s; efflux ratio at 120 min, 30 nM ([6]; pig, LLC-PK1, pH 7.4, with elacridar (GF120918) 5 µM, Efflux ratio BA/AB, + 5 µM GF120918): 0.9; Papp B→A at 120 min, 30 nM ([6]; pig, LLC-PK1, pH 7.4, with elacridar (GF120918) 5 µM, Papp BA, + 5 µM GF120918): 2.37 ± 0.08 ×10⁻⁶ cm/s
